Laboratory results reported in ChEMBL document CHEMBL5465560, “Selectivity Literature for EUbOPEN Chemogenomic Library” (2024).

Experiments:
[1] = target: Tyrosine-protein kinase Yes (Homo sapiens) (UniProt P07947); experiment: Selectivity interaction (Millipore kinase profiler) EUB0000124b YES1; details: at 10 µM
[2] = target: T1, TGF-beta receptor type-1 (Homo sapiens) (UniProt P36897); experiment: Selectivity interaction (KinomeScan (DiscoverX)) EUB0000666a TGFBR1; details: at 10 µM
T1 sequence (whole entry): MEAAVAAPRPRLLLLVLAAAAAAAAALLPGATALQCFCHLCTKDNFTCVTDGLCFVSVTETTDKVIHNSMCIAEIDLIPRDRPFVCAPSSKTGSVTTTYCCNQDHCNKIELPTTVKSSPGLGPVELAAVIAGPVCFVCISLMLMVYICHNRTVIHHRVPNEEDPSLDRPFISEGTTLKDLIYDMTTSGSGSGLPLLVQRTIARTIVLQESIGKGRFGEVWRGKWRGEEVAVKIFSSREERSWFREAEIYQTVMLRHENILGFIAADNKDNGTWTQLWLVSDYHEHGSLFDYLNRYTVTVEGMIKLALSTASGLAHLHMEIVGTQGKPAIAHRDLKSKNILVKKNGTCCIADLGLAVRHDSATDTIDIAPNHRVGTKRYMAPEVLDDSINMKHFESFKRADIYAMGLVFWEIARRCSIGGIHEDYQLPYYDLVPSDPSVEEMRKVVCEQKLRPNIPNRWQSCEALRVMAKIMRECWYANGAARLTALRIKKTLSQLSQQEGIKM

Estrogen receptor = Estrogen receptor (Homo sapiens, UniProt P03372); experiment: Selectivity interaction (Estrogen alpha receptor binding assay, human recombinant ) EUB0000877a ESR1
Chain of Estrogen receptor (P03372 whole entry): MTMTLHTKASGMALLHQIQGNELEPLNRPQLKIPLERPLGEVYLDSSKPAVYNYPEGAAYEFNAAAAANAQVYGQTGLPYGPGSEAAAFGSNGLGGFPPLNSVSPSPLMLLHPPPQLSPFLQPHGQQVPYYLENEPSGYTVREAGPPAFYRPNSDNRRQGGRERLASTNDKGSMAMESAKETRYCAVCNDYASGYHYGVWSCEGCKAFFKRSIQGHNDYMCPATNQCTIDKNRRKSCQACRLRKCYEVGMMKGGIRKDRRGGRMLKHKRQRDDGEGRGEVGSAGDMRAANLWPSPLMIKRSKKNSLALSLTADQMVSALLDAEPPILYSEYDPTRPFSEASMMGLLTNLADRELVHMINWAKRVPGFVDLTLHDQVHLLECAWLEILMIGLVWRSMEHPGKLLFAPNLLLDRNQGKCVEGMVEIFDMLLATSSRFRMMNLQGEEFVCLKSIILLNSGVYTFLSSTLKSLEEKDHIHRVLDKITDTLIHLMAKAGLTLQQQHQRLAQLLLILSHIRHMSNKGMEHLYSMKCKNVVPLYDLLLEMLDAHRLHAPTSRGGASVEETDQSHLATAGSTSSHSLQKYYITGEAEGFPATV

[3] = target: T2, Serine/threonine-protein kinase Nek2 (Homo sapiens) (UniProt P51955); details: at 10 µM
T2 sequence (whole entry): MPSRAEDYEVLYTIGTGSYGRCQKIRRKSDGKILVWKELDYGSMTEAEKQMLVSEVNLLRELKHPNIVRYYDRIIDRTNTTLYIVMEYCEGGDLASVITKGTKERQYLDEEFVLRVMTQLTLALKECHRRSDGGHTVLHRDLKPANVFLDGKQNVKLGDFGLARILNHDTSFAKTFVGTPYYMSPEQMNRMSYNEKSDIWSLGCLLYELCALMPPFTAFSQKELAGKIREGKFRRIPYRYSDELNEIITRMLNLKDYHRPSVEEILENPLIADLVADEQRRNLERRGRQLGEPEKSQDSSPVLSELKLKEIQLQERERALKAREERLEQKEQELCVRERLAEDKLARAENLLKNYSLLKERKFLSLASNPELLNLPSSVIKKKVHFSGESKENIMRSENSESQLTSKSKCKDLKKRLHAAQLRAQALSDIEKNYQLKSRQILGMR

[4] = target: Tyrosine-protein kinase Lyn (Homo sapiens, UniProt P07948); experiment: Selectivity interaction (ActivX KiNativ screen (kinase selectivity in THP-1 cell lysates)) EUB0000639a LYN; type: subcellular; details: lysate
Chain of Tyrosine-protein kinase Lyn (P07948 2-512 limits assumed): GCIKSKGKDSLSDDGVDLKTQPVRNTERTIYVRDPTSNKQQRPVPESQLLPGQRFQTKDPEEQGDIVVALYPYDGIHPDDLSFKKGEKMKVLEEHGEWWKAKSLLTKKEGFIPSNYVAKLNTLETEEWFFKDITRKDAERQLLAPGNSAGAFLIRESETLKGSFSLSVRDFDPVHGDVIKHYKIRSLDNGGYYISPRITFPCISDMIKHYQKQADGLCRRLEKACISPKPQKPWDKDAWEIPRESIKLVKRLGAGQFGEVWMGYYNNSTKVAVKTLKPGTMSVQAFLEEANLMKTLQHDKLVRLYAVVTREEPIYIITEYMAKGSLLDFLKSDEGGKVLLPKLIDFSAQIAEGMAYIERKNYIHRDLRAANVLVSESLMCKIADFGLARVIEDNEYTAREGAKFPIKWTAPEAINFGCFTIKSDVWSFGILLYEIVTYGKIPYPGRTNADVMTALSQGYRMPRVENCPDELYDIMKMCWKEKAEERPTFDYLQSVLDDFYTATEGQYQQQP

[5] = target: Serine/threonine-protein kinase PAK 3 (Homo sapiens) (UniProt O75914); experiment: Selectivity interaction (KinomeScan (DiscoverX)) EUB0000595a PAK3; details: at 10 µM
Chain of Serine/threonine-protein kinase PAK 3 (Homo sapiens) (O75914 whole entry, looked up): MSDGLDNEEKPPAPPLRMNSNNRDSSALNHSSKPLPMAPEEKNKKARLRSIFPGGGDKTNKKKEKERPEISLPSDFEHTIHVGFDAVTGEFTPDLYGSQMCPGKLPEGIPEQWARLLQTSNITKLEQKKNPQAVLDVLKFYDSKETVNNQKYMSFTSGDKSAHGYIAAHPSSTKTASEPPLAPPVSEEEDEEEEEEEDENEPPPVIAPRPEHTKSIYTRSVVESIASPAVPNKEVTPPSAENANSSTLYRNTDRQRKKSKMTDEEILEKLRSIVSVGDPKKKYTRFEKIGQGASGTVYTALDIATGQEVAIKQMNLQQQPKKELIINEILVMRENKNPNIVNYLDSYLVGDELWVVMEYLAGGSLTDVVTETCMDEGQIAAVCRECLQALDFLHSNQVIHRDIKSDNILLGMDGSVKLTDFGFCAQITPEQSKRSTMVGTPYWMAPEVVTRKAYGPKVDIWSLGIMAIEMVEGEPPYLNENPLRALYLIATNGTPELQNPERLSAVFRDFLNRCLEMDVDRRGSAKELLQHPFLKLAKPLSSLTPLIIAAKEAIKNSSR

[6] = target: T3, Ephrin type-A receptor 8 (Homo sapiens) (UniProt P29322); experiment: Selectivity interaction (KinomeScan (DiscoverX)) EUB0000092b EPHA8; details: at 10 µM
T3 sequence (whole entry): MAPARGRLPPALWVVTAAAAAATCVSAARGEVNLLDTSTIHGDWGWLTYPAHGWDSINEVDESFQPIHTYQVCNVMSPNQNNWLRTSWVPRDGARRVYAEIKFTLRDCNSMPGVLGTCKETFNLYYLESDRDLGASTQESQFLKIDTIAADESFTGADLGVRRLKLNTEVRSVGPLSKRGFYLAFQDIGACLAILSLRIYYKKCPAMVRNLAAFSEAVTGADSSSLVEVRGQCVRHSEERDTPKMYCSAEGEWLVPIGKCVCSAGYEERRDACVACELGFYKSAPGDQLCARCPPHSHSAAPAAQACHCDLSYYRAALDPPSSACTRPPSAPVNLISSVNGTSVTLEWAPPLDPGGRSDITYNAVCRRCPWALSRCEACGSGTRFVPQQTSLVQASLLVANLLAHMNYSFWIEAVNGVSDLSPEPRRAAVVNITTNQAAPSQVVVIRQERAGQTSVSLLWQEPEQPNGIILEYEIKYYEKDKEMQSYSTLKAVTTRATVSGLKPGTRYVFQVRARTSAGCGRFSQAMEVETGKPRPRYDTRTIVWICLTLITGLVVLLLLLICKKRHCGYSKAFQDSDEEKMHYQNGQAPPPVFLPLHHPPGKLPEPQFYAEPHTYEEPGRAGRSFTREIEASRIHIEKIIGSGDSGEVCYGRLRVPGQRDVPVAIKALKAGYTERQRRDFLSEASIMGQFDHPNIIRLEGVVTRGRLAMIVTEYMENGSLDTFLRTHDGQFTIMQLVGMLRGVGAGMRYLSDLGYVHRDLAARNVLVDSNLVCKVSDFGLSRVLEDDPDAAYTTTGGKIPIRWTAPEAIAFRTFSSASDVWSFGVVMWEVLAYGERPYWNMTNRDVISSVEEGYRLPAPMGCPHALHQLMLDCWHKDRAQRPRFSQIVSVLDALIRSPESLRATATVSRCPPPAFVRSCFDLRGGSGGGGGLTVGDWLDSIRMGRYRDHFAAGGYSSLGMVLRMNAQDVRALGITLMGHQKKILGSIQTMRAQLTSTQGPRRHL

[7] = target: Ribosomal protein S6 kinase beta-1 (Homo sapiens, UniProt P23443); experiment: Selectivity interaction (KinomeScan (DiscoverX)) EUB0001619a RPS6KB1; details: at 1 µM
Chain of Ribosomal protein S6 kinase beta-1 (P23443 whole entry, looked up): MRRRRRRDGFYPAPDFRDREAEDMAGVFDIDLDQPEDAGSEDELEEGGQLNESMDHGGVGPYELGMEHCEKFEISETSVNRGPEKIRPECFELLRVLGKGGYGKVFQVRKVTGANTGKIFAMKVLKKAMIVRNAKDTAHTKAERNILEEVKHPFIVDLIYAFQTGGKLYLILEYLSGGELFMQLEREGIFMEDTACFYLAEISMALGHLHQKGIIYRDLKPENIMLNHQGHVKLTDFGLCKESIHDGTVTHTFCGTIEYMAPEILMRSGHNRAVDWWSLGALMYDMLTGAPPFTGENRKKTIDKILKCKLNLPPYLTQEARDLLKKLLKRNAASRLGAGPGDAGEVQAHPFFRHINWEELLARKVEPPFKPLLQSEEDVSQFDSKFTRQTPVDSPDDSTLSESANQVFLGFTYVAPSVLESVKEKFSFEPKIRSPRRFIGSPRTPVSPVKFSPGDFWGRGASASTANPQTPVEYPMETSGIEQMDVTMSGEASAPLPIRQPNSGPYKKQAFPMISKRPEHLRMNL

[8] = target: Tyrosine-protein kinase Fes/Fps (Homo sapiens) (UniProt P07332); experiment: Selectivity interaction (Upstate Kinase Profiler service (Millipore)) EUB0000056c FES; details: at 1 µM
Chain of Tyrosine-protein kinase Fes/Fps (Homo sapiens) (P07332 whole entry): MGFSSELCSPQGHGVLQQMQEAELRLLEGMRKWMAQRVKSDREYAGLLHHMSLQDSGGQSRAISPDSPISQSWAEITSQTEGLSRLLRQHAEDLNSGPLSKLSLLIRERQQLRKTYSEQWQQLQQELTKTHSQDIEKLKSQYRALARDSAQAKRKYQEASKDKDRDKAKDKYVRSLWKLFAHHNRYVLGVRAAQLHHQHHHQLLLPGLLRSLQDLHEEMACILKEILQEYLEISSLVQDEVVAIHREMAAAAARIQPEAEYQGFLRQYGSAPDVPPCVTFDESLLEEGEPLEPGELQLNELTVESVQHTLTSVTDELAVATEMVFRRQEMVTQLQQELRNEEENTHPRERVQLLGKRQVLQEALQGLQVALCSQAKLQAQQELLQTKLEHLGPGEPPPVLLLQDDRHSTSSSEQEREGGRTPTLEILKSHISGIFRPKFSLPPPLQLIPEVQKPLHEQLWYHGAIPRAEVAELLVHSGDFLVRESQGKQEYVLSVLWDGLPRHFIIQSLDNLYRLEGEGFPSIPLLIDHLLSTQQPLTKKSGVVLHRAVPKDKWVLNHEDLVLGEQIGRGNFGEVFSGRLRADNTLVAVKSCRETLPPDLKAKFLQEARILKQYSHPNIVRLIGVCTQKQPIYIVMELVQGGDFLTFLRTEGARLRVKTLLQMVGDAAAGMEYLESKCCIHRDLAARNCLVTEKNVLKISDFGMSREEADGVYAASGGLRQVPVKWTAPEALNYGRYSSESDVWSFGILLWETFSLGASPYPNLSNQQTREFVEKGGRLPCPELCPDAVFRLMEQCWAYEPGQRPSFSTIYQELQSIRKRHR

[9] = target: T4, Testis-specific serine/threonine-protein kinase 3 (Homo sapiens) (UniProt Q96PN8); experiment: Selectivity interaction (Kinase panel (Z-LYTE Assay)) EUB0001632a TSSK3; details: at 10 µM
T4 sequence (whole entry): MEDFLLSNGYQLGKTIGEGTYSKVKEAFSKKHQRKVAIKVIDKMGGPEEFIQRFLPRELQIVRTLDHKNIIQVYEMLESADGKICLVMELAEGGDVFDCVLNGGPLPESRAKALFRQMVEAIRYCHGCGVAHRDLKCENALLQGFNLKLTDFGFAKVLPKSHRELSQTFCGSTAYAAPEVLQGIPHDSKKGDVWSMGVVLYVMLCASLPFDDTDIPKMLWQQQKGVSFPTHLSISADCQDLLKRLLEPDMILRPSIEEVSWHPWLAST

[10] = target: Acetylcholinesterase (Homo sapiens) (UniProt P22303); experiment: Selectivity interaction (Panel of non-epigenetic targets (kinases, GPCRs, ion channels, and transporters, Eurofins) ) EUB0000271b ACHE; details: at 1 µM
Chain of Acetylcholinesterase (Homo sapiens) (P22303 whole entry): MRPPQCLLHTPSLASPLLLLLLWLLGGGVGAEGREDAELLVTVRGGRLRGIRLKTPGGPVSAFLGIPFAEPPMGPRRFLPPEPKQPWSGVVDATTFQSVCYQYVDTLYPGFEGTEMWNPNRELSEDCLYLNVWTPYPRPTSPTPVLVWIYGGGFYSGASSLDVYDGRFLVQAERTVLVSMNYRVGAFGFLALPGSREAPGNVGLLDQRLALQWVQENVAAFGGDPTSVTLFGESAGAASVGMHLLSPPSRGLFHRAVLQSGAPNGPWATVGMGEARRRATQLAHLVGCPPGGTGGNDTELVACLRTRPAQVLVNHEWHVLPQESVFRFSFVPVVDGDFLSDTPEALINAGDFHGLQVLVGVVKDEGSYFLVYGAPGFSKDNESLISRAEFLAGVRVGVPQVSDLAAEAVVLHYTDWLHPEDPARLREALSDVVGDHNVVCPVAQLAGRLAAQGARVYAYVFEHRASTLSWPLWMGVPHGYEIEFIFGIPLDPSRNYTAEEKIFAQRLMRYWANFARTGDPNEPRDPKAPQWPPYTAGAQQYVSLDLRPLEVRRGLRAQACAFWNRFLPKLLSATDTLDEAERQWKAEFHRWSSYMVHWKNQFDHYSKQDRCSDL

Chain of Tyrosine-protein kinase Yes (Homo sapiens) (P07947 2-543 limits assumed): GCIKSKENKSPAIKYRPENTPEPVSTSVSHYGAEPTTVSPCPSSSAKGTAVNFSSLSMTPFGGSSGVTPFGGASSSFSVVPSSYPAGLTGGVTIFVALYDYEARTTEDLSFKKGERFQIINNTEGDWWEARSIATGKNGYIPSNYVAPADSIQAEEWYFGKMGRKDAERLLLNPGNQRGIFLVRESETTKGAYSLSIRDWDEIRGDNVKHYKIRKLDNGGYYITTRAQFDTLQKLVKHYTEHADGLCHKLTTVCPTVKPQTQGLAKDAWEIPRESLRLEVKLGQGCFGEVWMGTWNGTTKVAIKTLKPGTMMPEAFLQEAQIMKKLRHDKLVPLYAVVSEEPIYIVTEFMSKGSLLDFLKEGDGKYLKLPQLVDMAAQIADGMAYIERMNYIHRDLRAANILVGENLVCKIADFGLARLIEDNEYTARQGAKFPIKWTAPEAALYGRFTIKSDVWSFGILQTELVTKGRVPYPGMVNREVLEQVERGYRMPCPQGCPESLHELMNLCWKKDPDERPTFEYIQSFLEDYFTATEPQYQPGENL

CC(=O)Nc1cccc(-n2c(=O)n(C3CC3)c(=O)c3c(Nc4ccc(I)cc4F)n(C)c(=O)c(C)c32)c1
% of control [1]: 104%

O=C(NOC[C@H](O)CO)c1ccc(F)c(F)c1Nc1ccc(I)cc1F
% of control [2]: 100%

CCC(=O)N1CC[C@H](Nc2ncnc3c2CN(c2cnc(OC)c(C(F)(F)F)c2)CC3)C1 [LENIOLISIB]
IC50 (Estrogen receptor): > 30 µM

CCN(CC)CCCCNc1ncc2cc(-c3cc(OC)cc(OC)c3)c(NC(=O)NC(C)(C)C)nc2n1
% of control [3]: 100%

CC[C@@H]1[C@H](F)C(=O)N[C@@H]1COc1nccc2cc(C(N)=O)c(OC)cc12 [ZIMLOVISERTIB]
% of inhibition ([4]; at 0.01 µM): 12.8%
% of inhibition ([4]; at 0.04 µM): -4.2%
% of inhibition ([4]; at 0.2 µM): 5.4%
% of inhibition ([4]; at 1 µM): 6%
% of inhibition ([4]; at 5 µM): 2.2%

COCC(=O)NC/C=C/c1ccc2ncnc(Nc3ccc(Oc4ccc(C)nc4)c(C)c3)c2c1 [CP-724714]
% of control [5]: 70%

CCC(=O)N1CCN(c2ccc(-n3c(=O)ccc4cnc5ccc(-c6cnc7ccccc7c6)cc5c43)cc2C(F)(F)F)CC1
% of control [6]: 71%

N#Cc1cccc(-c2c[nH]c3ncnc(N4CCOCC4)c23)c1
% of control [7]: 100%

Cc1ccc(-c2ccc3c(ccc4sc5c(c43)NC[C@@H](C)NC5=O)n2)cn1
% of inhibition [8]: -3%

Cn1cc(-n2cnc3c(NCc4nc5cc(Cl)c(Cl)cc5[nH]4)nc(N4CCOCC4)nc32)cn1
% of control [9]: 4.44%

Cc1cc(C)cc([C@@H]2c3cc(C)ccc3NC(=O)CN2C(=O)c2ccc(Br)s2)c1
% of inhibition [10]: 7%
